According to BindingDB's records for patent US20250320234 (Pretzel Therapeutics, 2025):

Target: T1, Lon protease homolog, mitochondrial (Homo sapiens, UniProt P36776)
T1 sequence (P36776 whole entry): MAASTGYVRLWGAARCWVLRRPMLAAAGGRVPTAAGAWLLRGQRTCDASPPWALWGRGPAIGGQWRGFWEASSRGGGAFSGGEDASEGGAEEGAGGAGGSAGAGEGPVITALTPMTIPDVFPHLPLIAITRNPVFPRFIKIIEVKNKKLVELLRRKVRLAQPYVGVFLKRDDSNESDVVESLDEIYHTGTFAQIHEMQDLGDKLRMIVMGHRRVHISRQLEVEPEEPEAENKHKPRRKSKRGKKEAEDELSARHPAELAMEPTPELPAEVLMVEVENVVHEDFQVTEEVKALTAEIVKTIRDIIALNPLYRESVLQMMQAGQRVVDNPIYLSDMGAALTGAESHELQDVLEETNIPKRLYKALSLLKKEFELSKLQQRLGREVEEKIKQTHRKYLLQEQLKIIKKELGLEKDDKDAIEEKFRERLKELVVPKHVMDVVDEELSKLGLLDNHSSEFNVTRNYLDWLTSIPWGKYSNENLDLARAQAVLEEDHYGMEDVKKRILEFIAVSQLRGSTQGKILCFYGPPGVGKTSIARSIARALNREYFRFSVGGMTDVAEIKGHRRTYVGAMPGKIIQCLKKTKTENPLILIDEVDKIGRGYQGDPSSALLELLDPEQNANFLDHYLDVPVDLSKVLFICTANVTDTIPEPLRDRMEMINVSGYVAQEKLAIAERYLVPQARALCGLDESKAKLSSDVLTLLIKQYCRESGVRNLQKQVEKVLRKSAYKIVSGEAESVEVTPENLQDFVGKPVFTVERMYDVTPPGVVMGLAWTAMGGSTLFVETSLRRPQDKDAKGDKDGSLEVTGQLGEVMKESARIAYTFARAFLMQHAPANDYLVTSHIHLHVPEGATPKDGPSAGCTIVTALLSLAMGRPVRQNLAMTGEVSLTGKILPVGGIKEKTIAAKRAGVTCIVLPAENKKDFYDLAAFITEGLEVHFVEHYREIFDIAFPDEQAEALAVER
Experiment: Biological/Biochemical Evaluation
Protocol: In this Example, LONP1 (NM_004793.4) activity was measured by a FRET-based assay for protease activity using a fluorogenic peptide DabcylYRGIT(2Abu)SORQK(5-FAM) (Cambridge Research Biochemicals) as substrate. LONP1 activity is followed by an increase in fluorescence signal due to the degradation of the peptide. Inhibition of LONP1 protease activity by an inhibitor compound of the disclosure elicits a decrease in the fluorescent signal. The assay is performed in a 384-well plate (Greiner, cat. #781076) using the following reagents and conditions: substrate (3 μM) was incubated for 1 hour at 37° C. in the presence of LONP1 (15 nM as monomer), 25 mM Tris pH 8.0, 10 mM MgCl2, 0.03 mg/mL […], 0.5 mM DTT, 0.0003% Tween-20, 10 mM NaCl, 0.06 mM ATP and 0.5 mM EGTA in a 15 μL final volume. The LONP1-containing mix (10 μL) was incubated with the test compound for 15 min at 37° C. before adding the peptide-containing mix (5 μL). Solutions were dispensed using a small cassette-Multidrop Combi (Thermo Scientific). Fluorescence was measured using a PheraStar plate reader (BMG Labtech) FI-FRET EX 485 nm Em 520 nm.

| Structure (SMILES) | IC50 [nM] |
| --- | --- |
| COC[C@@H](NC(=O)c1cnccn1)C(=O)N[C@@H](CCOc1ccc(F)cc1)B(O)O [US20250320234, Compound 23] | < 50 |
| COC[C@@H](NC(=O)N1CCOCC1)C(=O)N[C@@H](CCCc1ccccc1)B(O)O [US20250320234, Compound 31] | < 50 |
| CO[C@@H](C)[C@@H](NC(=O)c1cnccn1)C(=O)N[C@@H](CCCc1ccccc1)B(O)O [US20250320234, Compound 6] | < 50 |
| COC[C@@H](NC(=O)c1cncc(C)c1)C(=O)N[C@@H](CCOc1ccccc1)B(O)O [US20250320234, Compound 44] | < 50 |
| COC[C@@H](NC(=O)c1ccccn1)C(=O)N[C@@H](CCCc1ccccc1)B(O)O [US20250320234, Compound 9] | < 50 |
| COC[C@@H](NC(=O)c1ccc(Cl)cc1)C(=O)N[C@@H](CCCc1ccccc1)B(O)O [US20250320234, Compound 51] | < 50 |
| COC[C@@H](NC(=O)c1cnccn1)C(=O)N[C@@H](CCCc1ccc(F)cc1)B(O)O [US20250320234, Compound 32] | < 50 |
| COC[C@@H](NC(=O)c1cnccn1)C(=O)N[C@@H](CCOc1ccccc1)B(O)O [US20250320234, Compound 14] | < 50 |
| COC[C@@H](NC(=O)c1cnccn1)C(=O)N[C@@H](CCCc1ccc(OC)cc1)B(O)O [US20250320234, Compound 5] | < 50 |
| COC[C@@H](NC(=O)c1cncnc1)C(=O)N[C@@H](CCCc1ccccc1)B(O)O [US20250320234, Compound 52] | < 50 |
| COC[C@@H](NC(=O)c1cnccn1)C(=O)N[C@@H](CCOc1ccc(Cl)cc1)B(O)O [US20250320234, Compound 21] | < 50 |
| COC[C@@H](NC(=O)c1cccc(C)n1)C(=O)N[C@@H](CCOc1ccccc1)B(O)O [US20250320234, Compound 42] | < 50 |
| COC[C@@H](NC(=O)[C@@H]1CCC(=O)N1)C(=O)N[C@@H](CCCc1ccccc1)B(O)O [US20250320234, Compound 7] | < 50 |
| COC[C@@H](NC(=O)c1cccc(C)n1)C(=O)N[C@@H](CCCc1ccccc1)B(O)O [US20250320234, Compound 10] | < 50 |
| COC[C@@H](NC(=O)c1cnccn1)C(=O)N[C@@](C)(CCCc1ccccc1)B(O)O [US20250320234, Compound 22] | > 5000 |
| COC[C@@H](NC(=O)c1ccccc1Cl)C(=O)N[C@@H](CCCc1ccccc1)B(O)O [US20250320234, Compound 57] | < 50 |
| O=C(N[C@H](CSc1ccccc1)C(=O)N[C@@H](CCCc1ccccc1)B(O)O)c1cnccn1 [US20250320234, Compound 34] | < 50 |
| COC[C@@H](NC(=O)c1cnccn1)C(=O)N[C@H](CCOc1ccc(Cl)cc1C)B(O)O [US20250320234, Compound 28] | > 5000 |
| COC[C@@H](NC(=O)c1cnccn1)C(=O)N[C@@H](CCOc1ccc(Cl)c(F)c1)B(O)O [US20250320234, Compound 25] | < 50 |
| COC[C@@H](NC(=O)c1cnccn1)C(=O)N[C@@H](CCCc1ccc(Cl)cc1)B(O)O [US20250320234, Compound 12] | < 50 |
| COC[C@@H](NC(=O)c1cc(Cl)ccc1Cl)C(=O)N[C@@H](CCCc1ccccc1)B(O)O [US20250320234, Compound 56] | < 50 |
| O=C(N[C@H](COCc1ccccc1)C(=O)N[C@@H](CCCc1ccccc1)B(O)O)c1cnccn1 [US20250320234, Compound 11] | < 50 |
| COC[C@@H](NC(=O)c1cccc(Cl)c1)C(=O)N[C@@H](CCCc1ccccc1)B(O)O [US20250320234, Compound 54] | < 50 |
| O=C(N[C@H](COC1CC1)C(=O)N[C@@H](CCCc1ccccc1)B(O)O)c1cnccn1 [US20250320234, Compound 20] | < 50 |
| COC[C@@H](NC(=O)c1cnccn1)C(=O)N[C@@H](CCOc1ccc(Cl)cc1F)B(O)O [US20250320234, Compound 24] | < 50 |
| CN(C)S(=O)(=O)C[C@H](NC(=O)c1cnccn1)C(=O)N[C@@H](CCCc1ccccc1)B(O)O [US20250320234, Compound 36] | < 50 |
| COC[C@@H](NC(=O)c1ccccn1)C(=O)N[C@@H](CCOc1ccccc1)B(O)O [US20250320234, Compound 43] | < 50 |
